Measured values reported in patent US10577365B2, “Derivatives of quinoline as inhibitors of DYRK1A and/or DYRK1B kinases” (Felicitex Therapeutics, Inc., priority 2016, dated 2020).
Counter-ions that a name gives are not always drawn. Like-named read-outs stand apart in the source and are kept apart here.

What was measured:
DYRK1B = target: T1, DYRK1B (Homo sapiens, UniProt Q9Y463); test: DYRK1B in vitro kinase assay (ADP-Glo); format: biochemical
T1 construct: purchased Carna Bioscence (Carna Biosciences) 04-131
Procedure: The compounds of the present invention were tested for their inhibitory activity against DYRK1A and DYRK1B kinases once or several times. When tested more than once, the data are reported herein as average value, wherein the average value, also referred to as the mean value, represents the sum of obtained values divided by the number of times tested. DYRK-inhibitory activity of the compounds of the present invention was tested using the ADP-Glo™ assay as described in the following paragraphs. The procedure for determining the IC50 values with the ADP-Glo™ assay in in vitro kinase assays consists of two parts: […] Kinase reaction performed under optimized conditions; 2. Detection of ADP as a product of the reaction using ADP-Glo™ system (Promega). The tested compounds indicated in Table 5 below were dissolved in DMSO, then transferred to the V-bottom PP plate to perform nine serial dilutions (in order to obtain dose-response curves) in 25% DMSO, as indicated in Table 5 below. The optimized conditions for performing DYRK1B in vitro kinase assay were as follows: [table] For compound testing, the following protocol was used: two mixes were prepared on ice, Mix 1 containing substrate, ATP and reaction buffer and Mix 2 containing reaction buffer and the kinase. 15 μL per well of Mix 1 was transferred to wells of a 96-well plate. […] Total reaction volume was 30 μL per well. The experiment was performed in duplicate for each data point being examined. Dose response curve for the positive control was carried out on each assay plate by adding the reference inhibitory compound staurosporine. For each test, three controls were also included: (i) 30 μL of the reaction mixture containing: reaction buffer, ATP, kinase, DMSO without substrate (quasi-positive control); (ii) 30 μL of the reaction mixture containing reaction buffer, substrate, ATP, DMSO without kinase (background control); (iii) 30 μL of the reaction mixture containing reaction buffer, substrate, kinase, ATP, DMSO (vehicle control). Final concentration of DMSO in the reaction was 2%. To detect the ADP amount produced during the kinase reaction, the commercially available kit ADP-Glo™ Kinase Assay (Promega, cat. No # V9103) was used. The protocol used for the detection was based on the Technical Bulletin of the ADP-Glo™ Kinase Assay (Promega) and was adapted to 96-well plate containing 30 μL reaction mixture as explained below. 30 μL of ADP-Glo™ Reagent was added to each well of a 96 well plate containing 30 μL of reaction mixture to terminate the kinase reaction and deplete the remaining ATP. The plate was incubated for 60 minutes on a shaker at rt. 60 μL of Kinase Detection Solution was then added to each well of 96-well plate containing 60 μL of the solution to convert ADP to ATP and to allow the newly synthesized ATP to be measured using a luciferase/luciferin reaction (ratio of kinase reaction volume to ADP Glo™ Reagent volume to Kinase Detection Solution volume was maintained at 1:1:2). The plate was incubated for 40 minutes on a shaker at rt, protected from light. Luminescence was measured in the plate reader, wherein the luminescent signal is proportional to the ADP concentration produced and thus correlates with kinase activity. After data normalization to controls (complete reaction mix and no-substrate control) and transforming X values (test compound concentrations) using: X=log(X), IC50 values were determined, using the GraphPad Prism 6.0 [log(agonist) vs. normalized response—Variable slope].

DYRK1A = target: T2, DYRK1A (Homo sapiens, UniProt Q13627); test: DYRK1A in vitro kinase assay (ADP-Glo); format: biochemical; conditions: ATP 70 μM (Km), substrate 3 μM, enzyme 2 nM or 0.7 nM, 30 min, rt
T2 construct: purchased Carna Bioscence (Carna Biosciences) 04-130
Procedure: The compounds of the present invention were tested for their inhibitory activity against DYRK1A and DYRK1B kinases once or several times. When tested more than once, the data are reported herein as average value, wherein the average value, also referred to as the mean value, represents the sum of obtained values divided by the number of times tested.
DYRK-inhibitory activity of the compounds of the present invention was tested using the ADP-Glo™ assay as described in the following paragraphs. The procedure for determining the IC50 values with the ADP-Glo™ assay in in vitro kinase assays consists of two parts:
1. Kinase reaction performed under optimized conditions;
2. Detection of ADP as a product of the reaction using ADP-Glo™ system (Promega).
The tested compounds indicated in Table 5 below were dissolved in DMSO, then transferred to the V-bottom PP plate to perform nine serial dilutions (in order to obtain dose-response curves) in 25% DMSO, as indicated in Table 5 below.
The optimized conditions for performing DYRK1A in vitro kinase assay were as follows:
For compound testing, the following protocol was used: two mixes were prepared on ice, Mix 1 containing substrate, ATP and reaction buffer and Mix 2 containing reaction buffer and the kinase. 15 μL per well of Mix 1 was transferred to wells of a 96-well plate. Next, 2.5 μL of the pre-diluted compound to be tested was added to Mix 1, followed by the addition of 12.5 μL of Mix 2. Total reaction volume was 30 μL per well. The experiment was performed in duplicate for each data point being examined. Dose response curve for the positive control was carried out on each assay plate by adding the reference inhibitory compound staurosporine. For each test, three controls were also included: (i) 30 μL of the reaction mixture containing: reaction buffer, ATP, kinase, DMSO without substrate (quasi-positive control); (ii) 30 μL of the reaction mixture containing reaction buffer, substrate, ATP, DMSO without kinase (background control); (iii) 30 μL of the reaction mixture containing reaction buffer, substrate, kinase, ATP, DMSO (vehicle control). Final concentration of DMSO in the reaction was 2%. To detect the ADP amount produced during the kinase reaction, the commercially available kit ADP-Glo™ Kinase Assay (Promega, cat. No # V9103) was used. The protocol used for the detection was based on the Technical Bulletin of the ADP-Glo™ Kinase Assay (Promega) and was adapted to 96-well plate containing 30 μL reaction mixture as explained below.
30 μL of ADP-Glo™ Reagent was added to each well of a 96 well plate containing 30 μL of reaction mixture to terminate the kinase reaction and deplete the remaining ATP. The plate was incubated for 60 minutes on a shaker at rt. 60 μL of Kinase Detection Solution was then added to each well of 96-well plate containing 60 μL of the solution to convert ADP to ATP and to allow the newly synthesized ATP to be measured using a luciferase/luciferin reaction (ratio of kinase reaction volume to ADP Glo™ Reagent volume to Kinase Detection Solution volume was maintained at 1:1:2). The plate was incubated for 40 minutes on a shaker at rt, protected from light. Luminescence was measured in the plate reader, wherein the luminescent signal is proportional to the ADP concentration produced and thus correlates with kinase activity.
After data normalization to controls (complete reaction mix and no-substrate control) and transforming X values (test compound concentrations) using: X=log(X), IC50 values were determined, using the GraphPad Prism 6.0 [log(agonist) vs. normalized response—Variable slope].

[1] = ADP-Glo assay, ATP 15 μM (Km), substrate 7 μM, enzyme 1 nM or 0.3 nM, 1 h, rt, read-out: DYRK1B IC50

T1 sequence (Q9Y463 whole entry): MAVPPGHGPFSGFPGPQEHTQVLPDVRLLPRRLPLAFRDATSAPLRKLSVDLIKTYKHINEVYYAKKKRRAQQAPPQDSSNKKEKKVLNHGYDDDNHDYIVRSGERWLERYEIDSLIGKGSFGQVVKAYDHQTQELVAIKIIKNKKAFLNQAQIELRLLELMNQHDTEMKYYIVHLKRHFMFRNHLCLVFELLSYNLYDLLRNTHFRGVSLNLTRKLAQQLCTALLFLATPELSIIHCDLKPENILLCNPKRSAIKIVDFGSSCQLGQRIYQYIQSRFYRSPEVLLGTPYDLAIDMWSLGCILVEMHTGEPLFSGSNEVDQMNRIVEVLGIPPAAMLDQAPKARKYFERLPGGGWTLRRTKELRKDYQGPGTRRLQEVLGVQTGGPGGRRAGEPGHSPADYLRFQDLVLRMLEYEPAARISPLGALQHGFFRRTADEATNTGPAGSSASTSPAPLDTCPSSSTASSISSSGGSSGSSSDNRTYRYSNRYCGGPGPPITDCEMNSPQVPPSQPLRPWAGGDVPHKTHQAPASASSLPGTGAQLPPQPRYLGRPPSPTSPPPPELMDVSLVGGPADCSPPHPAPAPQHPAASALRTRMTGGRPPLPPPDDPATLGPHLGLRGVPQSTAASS

Row | Structure (SMILES) | IC50 (DYRK1B; [1]) | IC50 (DYRK1A) | IC50 (DYRK1B)
1 | c1cnc2[nH]cc(-c3ccc4ncc(NCc5ccoc5)cc4c3)c2c1 [Example 16, N-(Furan-3-ylmethyl)-6-{1H-pyrrolo[2,3-b]pyridin-3-yl}quinolin-3-amine] | < 10 nM | < 10 nM | –
2 | CNC(=O)c1cnc2[nH]cc(-c3cc(F)c4nccc(N5CCC[C@H](N)C5)c4c3)c2c1 [Example 43, 3-{4-[(3S)-3-Aminopiperidin-1-yl]-8-fluoroquinolin-6-yl}-N-methyl-1H-pyrrolo[2,3-b]pyridine-5-carboxamide hydrochloride] | < 10 nM | < 10 nM | –
3 | CNC(=O)c1cnc2[nH]cc(-c3cc(F)c4nccc(N5CCC[C@@H](N)C5)c4c3)c2c1 [Example 41, 3-{4-[(3R)-3-Aminopiperidin-1-yl]-8-fluoroquinolin-6-yl}-N-methyl-1H-pyrrolo[2,3-b]pyridine-5-carboxamide hydrochloride] | < 10 nM | < 10 nM | –
4 | Nc1cnc2ccc(-c3c[nH]c4ncc(C(=O)NCc5cccnc5)cc34)cc2c1 [Example 61, 3-(3-Aminoquinolin-6-yl)-N-(pyridin-3-ylmethyl)-1H-pyrrolo[2,3-b]pyridine-5-carboxamide] | < 10 nM | < 10 nM | –
5 | CNC(=O)c1cnc2[nH]cc(-c3ccc4ncccc4c3)c2c1 [Example 25, N-Methyl-3-(quinolin-6-yl)-1H-pyrrolo[2,3-b]pyridine-5-carboxamide] | < 10 nM | < 10 nM | –
6 | CNC(=O)c1cnc2[nH]cc(-c3ccc4ncc(NC(C)=O)c(N5CCOCC5)c4c3)c2c1 [Example 57, 3-[3-Acetamido-4-(morpholin-4-yl)quinolin-6-yl]-N-methyl-1H-pyrrolo[2,3-b]pyridine-5-carboxamide] | < 10 nM | < 10 nM | –
7 | CN1CCC(Nc2ccnc3ccc(-c4c[nH]c5ncccc45)cc23)CC1 [Example 10, N-(1-Methylpiperidin-4-yl)-6-{1H-pyrrolo[2,3-b]pyridin-3-yl}quinolin-4-amine] | 10 to 100 nM | – | –
8 | N[C@H]1CC[C@H](Nc2ccnc3ccc(-c4c[nH]c5ncccc45)cc23)CC1 [Example 4, trans-1-N-(6-{1H-Pyrrolo[2,3-b]pyridin-3-yl}quinolin-4-yl)cyclohexane-1,4-diamine] | – | > 100 nM | –
9 | CN1CCC(Nc2c(C#N)cnc3ccc(-c4c[nH]c5ncccc45)cc23)CC1 [Example 64, 4-[(1-Methylpiperidin-4-yl)amino]-6-{1H-pyrrolo[2,3-b]pyridin-3-yl}quinoline-3-carbonitrile] | 10 to 100 nM | – | –
10 | Cc1cc(-c2c[nH]c3ncccc23)cc2cccnc12 [Example 12, 8-Methyl-6-{1H-pyrrolo[2,3-b]pyridin-3-yl}quinoline hydrochloride] | – | – | 10 to 100 nM
11 | CNC(=O)c1cnc2[nH]cc(-c3cc(OC)c4ncccc4c3)c2c1 [Example 29, 3-(8-Methoxyquinolin-6-yl)-N-methyl-1H-pyrrolo[2,3-b]pyridine-5-carboxamide] | 10 to 100 nM | – | –

Now from value to compound, other results behind:

Row | IC50 (DYRK1B; [1]) | IC50 (DYRK1A) | Structure (SMILES) | IC50 (DYRK1B)
12 | – | < 10 nM | N[C@H]1CCN(c2ccnc3ccc(-c4c[nH]c5ncccc45)cc23)C1 [Example 5, (3S)-1-(6-{1H-Pyrrolo[2,3-b]pyridin-3-yl}quinolin-4-yl)pyrrolidin-3-amine] | –
13 | < 10 nM | < 10 nM | CC(=O)N1CCC(Nc2c(N)cnc3ccc(-c4c[nH]c5ncccc45)cc23)CC1 [Example 66, 1-{4-[(3-Amino-6-{1H-pyrrolo[2,3-b]pyridin-3-yl}quinolin-4-yl)amino]piperidin-1-yl}ethan-1-one] | –
14 | < 10 nM | < 10 nM | N[C@H]1CCCN(c2ccnc3ccc(-c4c[nH]c5ncccc45)cc23)C1 [Example 3, (3S)-1-(6-{1H-Pyrrolo[2,3-b]pyridin-3-yl}quinolin-4-yl)piperidin-3-amine] | –
15 | – | 10 to 100 nM | Clc1ccnc2ccc(-c3c[nH]c4ncccc34)cc12 [Example 1, 4-Chloro-6-{1H-pyrrolo[2,3-b]pyridin-3-yl}quinoline] | –
16 | < 10 nM | < 10 nM | Clc1cc(-c2c[nH]c3ncccc23)cc2cccnc12 [Example 11, 8-Chloro-6-{1H-pyrrolo[2,3-b]pyridin-3-yl}quinoline hydrochloride] | –
17 | < 10 nM | 10 to 100 nM | CNC(=O)c1cnc2[nH]cc(-c3ccc4ncc([N+](=O)[O-])c(N5CCC[C@H](N)C5)c4c3)c2c1 [Example 53, 3-{4-[(3S)-3-Aminopiperidin-1-yl]-3-nitroquinolin-6-yl}-N-methyl-1H-pyrrolo[2,3-b]pyridine-5-carboxamide hydrochloride] | –
18 | < 10 nM | < 10 nM | O=C(NCc1cccnc1)c1cnc2[nH]cc(-c3ccc4ncc(NCC5CCOCC5)cc4c3)c2c1 [Example 63, 3-{3-[(Oxan-4-ylmethyl)amino]quinolin-6-yl}-N-(pyridin-3-ylmethyl)-1H-pyrrolo[2,3-b]pyridine-5-carboxamide] | –
19 | 10 to 100 nM | – | CNC(=O)c1cnc2[nH]cc(-c3cc(C)c4nccc(-c5cccnc5)c4c3)c2c1 [Example 42, N-Methyl-3-[8-methyl-4-(pyridin-3-yl)quinolin-6-yl]-1H-pyrrolo[2,3-b]pyridine-5-carboxamide] | –
20 | 10 to 100 nM | – | Cc1cc(-c2c[nH]c3ncccc23)cc2c(-c3cccnc3)ccnc12 [Example 18, 8-Methyl-4-(pyridin-3-yl)-6-{1H-pyrrolo[2,3-b]pyridin-3-yl}quinoline] | –
21 | 10 to 100 nM | – | COc1cc(-c2c[nH]c3ncccc23)cc2cccnc12 [Example 15, 8-Methoxy-6-{1H-pyrrolo[2,3-b]pyridin-3-yl}quinoline] | –
